≈ marks a conversion by molar mass, not a printed value. Where “and” joins values, the source holds several entries; their conditions need not be identical. Equal entries are not always repeated. Residues, ends and D or L forms follow the SMILES beside them.
How the values were obtained:
P. aeruginosa ATCC 27853 [1] = experiment: Neutropenic mouse bloodstream infection model; assay type: in vivo; conditions: single IV dose 4 mg/kg; for Log10 CFU/mL blood at 4 h, Mean / Δlog10 CFU/mL blood (mean) / Log10 CFU/mL blood at 4 h, single mouse: 4 h; for Δlog10 CFU/mL blood (mean): treated minus control, mean of replicates; for Δlog10 CFU/mL blood (mean) / Log10 CFU/mL blood at 4 h, single mouse / Delta Log10 CFU/mL blood at 4 h, single mouse: 4 mg/kg; for Delta Log10 CFU/mL blood at 4 h, single mouse: treated mouse minus mean of vehicle mice
Procedure: The experimental methodology for the neutropenic mouse bloodstream infection model was described previously. Briefly, 7-week-old female Swiss mice (22–28 g) were rendered neutropenic by intraperitoneal administration of cyclophosphamide, 4 days (150 mg/kg) and 1 day (100 mg/kg) prior to inoculation. Bloodstream infection was established by intravenous administration of a 50 µL bolus of early log-phase bacterial suspension (4 × 10^8 CFU/mL). Lipopeptide solutions were prepared at 1 mg/mL (free base) in sterile saline. At 2 h after inoculation, mice (n = 3) were injected intravenously with lipopeptide solution at 4 mg/kg (free base) or saline control. At 0 and 4 h after administration, blood was collected, diluted serially in sterile saline, and plated on nutrient agar plates. Agar plates were incubated at 37 °C overnight for bacterial colony counting and the bacterial load in the blood (log10 CFU/mL) in each mouse was calculated. In vivo efficacy was calculated as the difference of the log10 CFU/mL blood values between the treated mice and the saline-treated mice at 4 h post dosing (Δlog10 CFU/mL blood = log10 [treated] CFU/mL blood − log10[control] CFU/mL blood).

[2] = test system: P. aeruginosa FADDI-PA025; assay type: cell-based, Pseudomonas aeruginosa; conditions: FADDI-PA025
Procedure: (§1) MICs were determined in cation-adjusted Mueller–Hinton broth (CaMHB) by the broth micro-dilution method against ATCC strains and clinical isolates. MICs in the presence of Survanta® were determined as described above against P. aeruginosa ATCC 27853. In the 100 μL of fresh CaMHB containing polymyxins, 10% Survanta® (v/v, 2.5 mg/mL phospholipids) was added. MICs in the presence and absence of Survanta® were compared to determine the effect of binding to lung surfactant on the antibacterial activity of polymyxins.

[3] = test system: P. aeruginosa FADDI-PA038; assay type: cell-based, Pseudomonas aeruginosa; conditions: FADDI-PA038
Procedure: as §1

P. aeruginosa ATCC 27853 [4] = assay type: cell-based, Pseudomonas aeruginosa; conditions: ATCC 27853
Procedure: as §1

[5] = test system: K. pneumoniae FADDI-KP065; assay type: cell-based, Klebsiella pneumoniae; conditions: FADDI-KP065
Procedure: as §1

[6] = test system: K. pneumoniae FADDI-KP032; assay type: cell-based, Klebsiella pneumoniae; conditions: FADDI-KP032
Procedure: as §1

A. baumannii FADDI-AB030 = assay type: cell-based, Acinetobacter baumannii; conditions: FADDI-AB030
Procedure: as §1

A. baumannii ATCC 19606 = assay type: cell-based, Acinetobacter baumannii; conditions: ATCC 19606
Procedure: as §1

A. baumannii FADDI-AB034 = assay type: cell-based, Acinetobacter baumannii; conditions: FADDI-AB034
Procedure: as §1

Swiss mice, kidney = experiment: Nephrotoxicity in mice (kidney histopathology); assay type: in vivo, mouse; conditions: for Kidney histopathology (SQS Score): 72 mg/kg/d subcutaneously in six divided doses every 2 h, n = 3; for Kidney histopathology, mice with the SQS score: mouse, in vivo
Procedure: The experimental methodology has been previously reported by our group. Briefly, individual lipopeptide solutions were prepared in sterile saline (6 mg/mL). Swiss mice (female, 7-week-old, 22–28 g) were subcutaneously administered at 12 mg/kg in, 6 doses every 2 h to reach a total dose of 72 mg/kg (n = 3). For high-dose nephrotoxicity experiments, mice were intraperitoneally administered at 20 or 25 mg/kg, in 6 doses every 2 h to reach a total dose of 120 mg/kg (n = 6) or 150 mg/kg (n = 3). At 20 h after the last dose, the right kidney from each mouse was collected and placed in 10% buffered (pH 7.4) formalin (Sigma-Aldrich, Castle Hill, NSW, Australia). The kidneys were subjected to histological examination at the Australian Phenomics Network-Histopathology and Organ Pathology (University of Melbourne, Parkville, VIC, Australia), who was blind to the treatment groups.

CCCCCCCC(=O)N[C@@H](CCN)C(=O)N[C@H](C(=O)N[C@@H](CCN)C(=O)N[C@H]1CCNC(=O)[C@H]([C@@H](C)O)NC(=O)[C@H](CCN)NC(=O)[C@H](CCN)NC(=O)[C@H](C(C)C)NC(=O)[C@@H](CC(C)C)NC(=O)[C@H](CCN)NC1=O)[C@@H](C)O [Lipopeptide F225] (HELM PEPTIDE1{[CCCCCCCC(=O)[*:2]].[Dab].T.[Dab].[Dab].[Dab].[dL].V.[Dab].[Dab].T}$PEPTIDE1,PEPTIDE1,5:R3-11:R2$$$V2.0)
Log10 CFU/mL blood at 4 h, Mean (P. aeruginosa ATCC 27853 [1]): 4.59 Log10 CFU/mL blood | Δlog10 CFU/mL blood (mean) (P. aeruginosa ATCC 27853 [1]): −2.86 log10 CFU/mL blood | Log10 CFU/mL blood at 4 h, single mouse (P. aeruginosa ATCC 27853 [1]): 4.22 Log10 CFU/mL blood and 4.78 Log10 CFU/mL blood (2×) | Delta Log10 CFU/mL blood at 4 h, single mouse (P. aeruginosa ATCC 27853 [1]): -3.23 Log10 CFU/mL blood and -2.67 Log10 CFU/mL blood (2×) | MIC P. aeruginosa FADDI-PA025 [2]: 4 µg/mL (≈ 3.5 µM) | MIC P. aeruginosa FADDI-PA038 [3]: 1 µg/mL (≈ 0.876 µM) | MIC P. aeruginosa ATCC 27853 (P. aeruginosa ATCC 27853 [4]): 1 µg/mL (≈ 0.876 µM) | MIC K. pneumoniae FADDI-KP065 [5]: <0.125 µg/mL | MIC K. pneumoniae FADDI-KP032 [6]: <0.125 µg/mL | MIC A. baumannii FADDI-AB030 (A. baumannii FADDI-AB030): 0.25 µg/mL (≈ 0.219 µM) | MIC A. baumannii ATCC 19606 (A. baumannii ATCC 19606): 0.5 µg/mL (≈ 0.438 µM) | MIC A. baumannii FADDI-AB034 (A. baumannii FADDI-AB034): 0.25 µg/mL (≈ 0.219 µM) | Kidney histopathology (SQS Score) (Swiss mice, kidney): 0 (SQS 0 = no significant change (overall score, <1)) | Kidney histopathology, mice with the SQS score (Swiss mice, kidney): 3/3

CCCCCCCC(=O)N[C@@H](CCN)C(=O)N[C@H](C(=O)N[C@@H](CCN)C(=O)N[C@H]1CCNC(=O)[C@H]([C@@H](C)O)NC(=O)[C@H](CCN)NC(=O)[C@H](CCN)NC(=O)[C@H]([C@@H](C)O)NC(=O)[C@@H](CCCC)NC(=O)[C@H](CCN)NC1=O)[C@@H](C)O [Lipopeptide F226] (HELM PEPTIDE1{[CCCCCCCC(=O)[*:2]].[Dab].T.[Dab].[Dab].[Dab].[CCCC[C@@H](N[*:1])C(=O)[*:2]].T.[Dab].[Dab].T}$PEPTIDE1,PEPTIDE1,5:R3-11:R2$$$V2.0)
Log10 CFU/mL blood at 4 h, Mean (P. aeruginosa ATCC 27853 [1]): 4.20 Log10 CFU/mL blood | Δlog10 CFU/mL blood (mean) (P. aeruginosa ATCC 27853 [1]): −3.24 log10 CFU/mL blood | Log10 CFU/mL blood at 4 h, single mouse (P. aeruginosa ATCC 27853 [1]): 4.01 Log10 CFU/mL blood and 4.55 Log10 CFU/mL blood and 4.05 Log10 CFU/mL blood | Delta Log10 CFU/mL blood at 4 h, single mouse (P. aeruginosa ATCC 27853 [1]): -3.43 Log10 CFU/mL blood and -2.90 Log10 CFU/mL blood and -3.40 Log10 CFU/mL blood | MIC P. aeruginosa FADDI-PA025 [2]: 16 µg/mL (≈ 14 µM) | MIC P. aeruginosa FADDI-PA038 [3]: 1 µg/mL (≈ 0.875 µM) | MIC P. aeruginosa ATCC 27853 (P. aeruginosa ATCC 27853 [4]): 1 µg/mL (≈ 0.875 µM) | MIC K. pneumoniae FADDI-KP065 [5]: <0.125 µg/mL | MIC K. pneumoniae FADDI-KP032 [6]: <0.125 µg/mL | MIC A. baumannii FADDI-AB030 (A. baumannii FADDI-AB030): 0.5 µg/mL (≈ 0.437 µM) | MIC A. baumannii ATCC 19606 (A. baumannii ATCC 19606): 2 µg/mL (≈ 1.75 µM) | MIC A. baumannii FADDI-AB034 (A. baumannii FADDI-AB034): 1 µg/mL (≈ 0.875 µM) | Kidney histopathology (SQS Score) (Swiss mice, kidney): +1 (SQS + 1 = mild damage (overall score, 1 to <15)) | Kidney histopathology, mice with the SQS score (Swiss mice, kidney): 1/3

CCCCCCCC(=O)N[C@@H](CCN)C(=O)N[C@H](C(=O)N[C@@H](CCN)C(=O)N[C@H]1CCNC(=O)[C@H]([C@@H](C)O)NC(=O)[C@H](CCN)NC(=O)[C@H](CCN)NC(=O)[C@H](CO)NC(=O)[C@@H](CC(C)C)NC(=O)[C@H](CCN)NC1=O)[C@@H](C)O [Lipopeptide F227] (HELM PEPTIDE1{[CCCCCCCC(=O)[*:2]].[Dab].T.[Dab].[Dab].[Dab].[dL].S.[Dab].[Dab].T}$PEPTIDE1,PEPTIDE1,5:R3-11:R2$$$V2.0)
Log10 CFU/mL blood at 4 h, Mean (P. aeruginosa ATCC 27853 [1]): 6.47 Log10 CFU/mL blood | Δlog10 CFU/mL blood (mean) (P. aeruginosa ATCC 27853 [1]): −1.04 log10 CFU/mL blood | Log10 CFU/mL blood at 4 h, single mouse (P. aeruginosa ATCC 27853 [1]): 6.74 Log10 CFU/mL blood and 5.57 Log10 CFU/mL blood and 7.10 Log10 CFU/mL blood | Delta Log10 CFU/mL blood at 4 h, single mouse (P. aeruginosa ATCC 27853 [1]): -0.77 Log10 CFU/mL blood and -1.95 Log10 CFU/mL blood and -0.41 Log10 CFU/mL blood | MIC P. aeruginosa FADDI-PA025 [2]: >32 µg/mL | MIC P. aeruginosa FADDI-PA038 [3]: >32 µg/mL | MIC P. aeruginosa ATCC 27853 (P. aeruginosa ATCC 27853 [4]): 0.5 µg/mL (≈ 0.443 µM) | MIC K. pneumoniae FADDI-KP065 [5]: 0.25 µg/mL (≈ 0.221 µM) | MIC K. pneumoniae FADDI-KP032 [6]: 0.25 µg/mL (≈ 0.221 µM) | MIC A. baumannii FADDI-AB030 (A. baumannii FADDI-AB030): 4 µg/mL (≈ 3.54 µM) | MIC A. baumannii ATCC 19606 (A. baumannii ATCC 19606): 8 µg/mL (≈ 7.08 µM) | MIC A. baumannii FADDI-AB034 (A. baumannii FADDI-AB034): 4 µg/mL (≈ 3.54 µM) | Kidney histopathology (SQS Score) (Swiss mice, kidney): 0 (SQS 0 = no significant change (overall score, <1)) | Kidney histopathology, mice with the SQS score (Swiss mice, kidney): 3/3

Reference: PMC8956739, “A synthetic lipopeptide targeting top-priority multidrug-resistant Gram-negative pathogens” (Nature Communications, 2022)
